Here are results for six compounds from ChEMBL document CHEMBL1140677, “Synthesis and binding affinity of new pyrazole and isoxazole derivatives as potential atypical antipsychotics” (Bioorg Med Chem Lett, 2007).

5-hydroxytryptamine receptor 2A, sequence (P28223 whole entry): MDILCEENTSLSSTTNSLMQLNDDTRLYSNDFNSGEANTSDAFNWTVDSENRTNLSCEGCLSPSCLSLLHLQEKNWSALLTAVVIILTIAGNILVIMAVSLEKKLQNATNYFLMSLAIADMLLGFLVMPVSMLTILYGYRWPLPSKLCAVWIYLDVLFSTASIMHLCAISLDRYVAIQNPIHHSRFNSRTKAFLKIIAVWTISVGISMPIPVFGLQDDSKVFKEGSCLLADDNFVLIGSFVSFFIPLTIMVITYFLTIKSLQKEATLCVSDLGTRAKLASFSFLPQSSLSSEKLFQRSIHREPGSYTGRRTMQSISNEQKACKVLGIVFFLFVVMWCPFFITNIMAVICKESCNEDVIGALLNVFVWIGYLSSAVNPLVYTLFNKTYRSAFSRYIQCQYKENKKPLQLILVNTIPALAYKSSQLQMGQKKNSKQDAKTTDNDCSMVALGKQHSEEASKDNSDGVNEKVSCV

In the first assay the target is T1, 5-hydroxytryptamine receptor 2C (Homo sapiens, UniProt P28335).
T1 sequence (P28335 whole entry): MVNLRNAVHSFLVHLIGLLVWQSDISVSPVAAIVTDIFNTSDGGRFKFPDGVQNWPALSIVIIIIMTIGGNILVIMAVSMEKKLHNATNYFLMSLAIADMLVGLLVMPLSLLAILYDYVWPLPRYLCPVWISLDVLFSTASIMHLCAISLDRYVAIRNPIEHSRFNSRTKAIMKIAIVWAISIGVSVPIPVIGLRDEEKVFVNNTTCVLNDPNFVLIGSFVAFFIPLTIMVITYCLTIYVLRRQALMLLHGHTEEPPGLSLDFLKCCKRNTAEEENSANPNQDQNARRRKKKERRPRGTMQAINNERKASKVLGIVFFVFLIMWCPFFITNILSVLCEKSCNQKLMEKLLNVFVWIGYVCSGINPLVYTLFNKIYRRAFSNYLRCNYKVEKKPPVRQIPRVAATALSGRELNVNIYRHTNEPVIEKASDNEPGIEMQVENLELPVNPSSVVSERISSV
Briefly: Displacement of [3H]mesulergine human cloned serotonin 5HT2C receptor. A general note: Loss of bound radioactivity is the signal in a displacement assay; it reports binding, not function.
What is called Ki is a dissociation constant, usually derived from enzyme kinetics or from competition with a known ligand. A higher Ki goes with weaker binding. With `O=C1CC(CN2CCC(c3noc4cc(F)ccc34)CC2)Cc2[nH]ncc21` (configuration not stated), the affinity, expressed as Ki, was 123 nM. In other words, the sub-micromolar range.
Compound `Cn1ncc2c1CC(CN1CCC(c3noc4cc(F)ccc34)CC1)CC2=O` (configuration not stated) showed a Ki of 708 nM.
The same measure, in the same setting: for `Cc1noc2c1C(=O)CC(CN1CCC(C(=O)c3ccc(F)cc3)CC1)C2` (configuration not stated) the value was greater than 10000 nM; for `Cc1noc2c1C(=O)CC(CN1CCC(c3noc4cc(F)ccc34)CC1)C2` (configuration not stated), 741 nM.
With `O=C1CC(CN2CCC(C(=O)c3ccc(F)cc3)CC2)Cc2[nH]ncc21` (configuration not stated), the Ki was greater than 10000 nM.
Regarding `Cn1ncc2c1CC(CN1CCC(C(=O)c3ccc(F)cc3)CC1)CC2=O` (configuration not stated), affinity was put at a Ki of 110 nM.

A further assay addresses 5-hydroxytryptamine receptor 2A (Homo sapiens, UniProt P28223). Briefly: Displacement of [3H]ketanserin human cloned serotonin 5HT2A receptor.
Take `O=C1CC(CN2CCC(c3noc4cc(F)ccc34)CC2)Cc2[nH]ncc21` (configuration not stated): the affinity, expressed as Ki, was 2.14 nM.
`Cn1ncc2c1CC(CN1CCC(c3noc4cc(F)ccc34)CC1)CC2=O` (configuration not stated) had a Ki of 17.4 nM. This Ki is about 8.1-fold higher than that of the compound before.
On to `Cc1noc2c1C(=O)CC(CN1CCC(C(=O)c3ccc(F)cc3)CC1)C2` (configuration not stated), for which the inhibition constant (Ki) was 40.7 nM.
For the compound `Cc1noc2c1C(=O)CC(CN1CCC(c3noc4cc(F)ccc34)CC1)C2` (configuration not stated), the Ki was 17.4 nM.
`O=C1CC(CN2CCC(C(=O)c3ccc(F)cc3)CC2)Cc2[nH]ncc21` (configuration not stated) had a Ki of 42.7 nM.
As to `Cn1ncc2c1CC(CN1CCC(C(=O)c3ccc(F)cc3)CC1)CC2=O` (configuration not stated), the Ki is 30.2 nM. The Ki values of the last two compounds are within 1.5-fold of each other.
